Laboratory results: ChEMBL document CHEMBL1201862, “PubChem BioAssay data set” (2004)
The source made the active and inactive calls.

Columns and labels:
Nonstructural protein 1 = Nonstructural protein 1 (Influenza A virus, UniProt Q194T2); type: functional, Influenza A virus (A/California/07/2009(H1N1))
[1] = target: Heat shock protein HSP 90-alpha (Homo sapiens, UniProt P07900); type: functional, organism-based
[2] = target: T1, Histone-lysine N-methyltransferase NSD2 (Homo sapiens, UniProt O96028); type: biochemical
T1 sequence (O96028 whole entry): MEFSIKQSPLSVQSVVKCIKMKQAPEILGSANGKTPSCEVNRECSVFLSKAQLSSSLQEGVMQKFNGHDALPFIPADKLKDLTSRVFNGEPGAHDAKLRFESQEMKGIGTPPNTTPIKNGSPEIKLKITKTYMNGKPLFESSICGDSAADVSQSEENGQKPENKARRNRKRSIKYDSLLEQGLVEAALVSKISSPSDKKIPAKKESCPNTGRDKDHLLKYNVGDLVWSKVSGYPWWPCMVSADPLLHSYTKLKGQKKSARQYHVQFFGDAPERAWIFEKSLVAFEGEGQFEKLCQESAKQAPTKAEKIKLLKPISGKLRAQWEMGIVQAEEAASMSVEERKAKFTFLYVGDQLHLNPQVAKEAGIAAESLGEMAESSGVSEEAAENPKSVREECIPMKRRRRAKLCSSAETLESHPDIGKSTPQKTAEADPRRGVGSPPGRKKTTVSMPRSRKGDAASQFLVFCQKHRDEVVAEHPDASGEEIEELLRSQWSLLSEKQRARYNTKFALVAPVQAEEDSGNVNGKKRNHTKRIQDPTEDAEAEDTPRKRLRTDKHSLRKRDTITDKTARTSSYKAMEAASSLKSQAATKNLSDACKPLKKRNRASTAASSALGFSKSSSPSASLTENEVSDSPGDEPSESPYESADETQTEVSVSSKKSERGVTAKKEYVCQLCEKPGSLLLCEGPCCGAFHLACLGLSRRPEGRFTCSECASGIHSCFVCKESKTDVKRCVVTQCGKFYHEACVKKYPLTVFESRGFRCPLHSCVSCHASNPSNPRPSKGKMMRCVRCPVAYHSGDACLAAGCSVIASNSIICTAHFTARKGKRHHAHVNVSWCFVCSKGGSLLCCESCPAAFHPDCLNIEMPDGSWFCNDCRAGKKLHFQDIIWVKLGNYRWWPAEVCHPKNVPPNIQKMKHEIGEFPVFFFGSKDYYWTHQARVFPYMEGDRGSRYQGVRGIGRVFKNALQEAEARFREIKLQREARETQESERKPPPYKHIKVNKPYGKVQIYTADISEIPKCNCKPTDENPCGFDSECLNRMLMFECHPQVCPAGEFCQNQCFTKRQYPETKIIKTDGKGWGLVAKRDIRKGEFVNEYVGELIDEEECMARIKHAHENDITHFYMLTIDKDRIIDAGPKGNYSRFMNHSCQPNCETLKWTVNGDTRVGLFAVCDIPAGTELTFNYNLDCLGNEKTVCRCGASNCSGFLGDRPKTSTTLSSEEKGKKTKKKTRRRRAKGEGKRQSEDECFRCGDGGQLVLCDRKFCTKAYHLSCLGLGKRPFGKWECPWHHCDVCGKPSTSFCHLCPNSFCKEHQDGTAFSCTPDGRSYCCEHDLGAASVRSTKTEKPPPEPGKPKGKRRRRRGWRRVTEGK

[3] = target: T2, Replicative DNA helicase DnaB (Mycobacterium tuberculosis, UniProt P9WMR3); assay: DnaB intein splicing inhibitors, dose response, biochemical, cell-free fluorescence (AID 449749); type: functional
T2 sequence (P9WMR3 whole entry): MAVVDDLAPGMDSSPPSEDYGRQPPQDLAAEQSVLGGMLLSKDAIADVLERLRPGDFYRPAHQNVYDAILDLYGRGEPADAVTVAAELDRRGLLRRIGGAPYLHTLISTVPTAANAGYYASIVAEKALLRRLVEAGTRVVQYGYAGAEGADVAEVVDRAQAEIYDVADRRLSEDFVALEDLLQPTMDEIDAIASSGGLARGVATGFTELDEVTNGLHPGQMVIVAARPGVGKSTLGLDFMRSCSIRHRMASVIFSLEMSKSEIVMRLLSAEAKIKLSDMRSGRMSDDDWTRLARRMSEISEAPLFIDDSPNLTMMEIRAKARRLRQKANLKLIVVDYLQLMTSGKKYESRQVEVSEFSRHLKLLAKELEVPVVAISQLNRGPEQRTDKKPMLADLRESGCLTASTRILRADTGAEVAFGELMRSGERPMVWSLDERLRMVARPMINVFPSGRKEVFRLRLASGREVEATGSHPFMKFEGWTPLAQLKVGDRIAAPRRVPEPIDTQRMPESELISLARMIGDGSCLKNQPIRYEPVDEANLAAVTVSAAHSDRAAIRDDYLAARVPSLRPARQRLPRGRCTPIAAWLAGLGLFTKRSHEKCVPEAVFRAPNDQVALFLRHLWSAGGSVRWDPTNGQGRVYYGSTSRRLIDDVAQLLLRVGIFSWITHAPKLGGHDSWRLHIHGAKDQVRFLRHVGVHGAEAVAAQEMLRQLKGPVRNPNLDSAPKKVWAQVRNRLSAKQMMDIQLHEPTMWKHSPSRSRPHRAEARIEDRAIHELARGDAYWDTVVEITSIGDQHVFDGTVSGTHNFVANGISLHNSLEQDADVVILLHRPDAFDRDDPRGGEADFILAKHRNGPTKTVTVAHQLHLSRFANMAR

Caspase-6 = target: T3, Caspase-6 (Homo sapiens, UniProt P55212); assay: inhibition of CASP6 peptide cleavage – biochemical, VEID-R110 fluorescence, cherry-pick, dose response (AID 720632)
T3 sequence (P55212 whole entry): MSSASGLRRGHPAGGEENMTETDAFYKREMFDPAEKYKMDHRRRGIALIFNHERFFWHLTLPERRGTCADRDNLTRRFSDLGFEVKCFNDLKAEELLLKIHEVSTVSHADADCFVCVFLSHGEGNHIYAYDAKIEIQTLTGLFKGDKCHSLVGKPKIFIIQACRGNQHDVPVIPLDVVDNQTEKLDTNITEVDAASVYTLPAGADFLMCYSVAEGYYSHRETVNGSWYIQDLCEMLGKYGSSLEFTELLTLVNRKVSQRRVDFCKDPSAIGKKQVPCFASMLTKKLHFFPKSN

[4] = target: T4, Tyrosyl-DNA phosphodiesterase 2 (Homo sapiens, UniProt O95551); assay: potency against TDP2 phosphodiesterase activity – biochemical, epi absorbance, IC50, dose response (AID 743297)
T4 sequence (O95551 whole entry): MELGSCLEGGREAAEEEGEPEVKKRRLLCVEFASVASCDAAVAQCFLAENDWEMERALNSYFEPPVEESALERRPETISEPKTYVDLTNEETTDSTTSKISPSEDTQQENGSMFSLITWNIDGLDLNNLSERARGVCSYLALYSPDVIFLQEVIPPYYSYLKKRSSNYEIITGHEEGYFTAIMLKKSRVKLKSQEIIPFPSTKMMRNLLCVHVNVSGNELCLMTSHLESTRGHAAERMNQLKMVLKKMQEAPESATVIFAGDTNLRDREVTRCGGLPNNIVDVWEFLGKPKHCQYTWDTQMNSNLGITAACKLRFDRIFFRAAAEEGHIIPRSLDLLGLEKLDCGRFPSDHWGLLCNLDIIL

Protein RecA = target: T5, Protein RecA (Mycobacterium tuberculosis, UniProt P9WHJ3); assay: Fluorescence Cell-Free Homogeneous Dose Retest to Identify Inhibitors of RecA-Intein Splicing Activity. [Related pubchem assays (depositor defined):AID2097, AID2223, AID489010, AID492950]; type: functional
T5 sequence (P9WHJ3 whole entry): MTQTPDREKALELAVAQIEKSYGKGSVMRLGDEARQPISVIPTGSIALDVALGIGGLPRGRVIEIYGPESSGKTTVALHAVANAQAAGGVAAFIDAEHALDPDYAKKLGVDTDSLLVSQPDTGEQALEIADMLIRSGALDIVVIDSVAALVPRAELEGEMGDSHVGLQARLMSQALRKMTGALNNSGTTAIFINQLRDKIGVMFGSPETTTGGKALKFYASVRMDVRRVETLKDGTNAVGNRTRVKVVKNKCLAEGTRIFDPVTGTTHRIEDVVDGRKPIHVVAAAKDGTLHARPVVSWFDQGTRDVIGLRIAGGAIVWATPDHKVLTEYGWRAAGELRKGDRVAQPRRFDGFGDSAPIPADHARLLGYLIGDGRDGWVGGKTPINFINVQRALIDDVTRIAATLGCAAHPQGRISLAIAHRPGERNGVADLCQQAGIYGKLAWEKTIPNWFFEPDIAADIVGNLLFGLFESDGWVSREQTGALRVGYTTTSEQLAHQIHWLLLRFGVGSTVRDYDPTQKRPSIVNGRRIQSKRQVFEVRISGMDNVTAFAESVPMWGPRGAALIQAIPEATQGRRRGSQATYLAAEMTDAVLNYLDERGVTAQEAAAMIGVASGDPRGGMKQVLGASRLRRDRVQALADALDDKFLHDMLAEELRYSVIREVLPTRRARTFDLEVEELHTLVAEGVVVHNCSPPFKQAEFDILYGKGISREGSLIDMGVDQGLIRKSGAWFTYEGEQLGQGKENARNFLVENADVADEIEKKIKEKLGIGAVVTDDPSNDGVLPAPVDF

[5] = reduction of Shn3 3'UTR-driven luciferase in osteoblasts – cell-based, Clone20 osteoblasts, firefly luciferase, cherry-picked, dose response (AID 624132); type: functional;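 further: firefly luciferase luminescence from reporter carrying the Shn3 3'UTR in osteoblasts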
[6] = Luminescence Cell-Based Dose Confirmation HTS to Identify Inhibitors of Platelet Dense Granule Release. [Related pubchem assays: 1663 (Primary HTS), 1678 (Summary of Project)]; type: functional
[7] = target: Luciferin 4-monooxygenase (Photinus pyralis, UniProt P08659); assay: inhibition of purified Photinus pyralis luciferase – biochemical, luminescence, dose response (AID 1891)
INS1 = assay: INS-1E survival protection against cytokine death – cell-based, luminescence, retest, dose response (AID 449756); type: functional; details: Rattus norvegicus;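 further: cell death triggered by IL-1 beta plus TNF-alpha plus IFN-gamma mixture; protective hits raise ATP signal compared with cytokine alone wells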
Protein Wnt-3a = Protein Wnt-3a (Mus musculus, UniProt P27467); assay: antagonism of Wnt3a pathway luciferase reporter – Wnt-LIGHT cells, luminescence, selectivity assay for Gli-SUFU antagonist project, dose response (AID 651570); type: functional; details: read-out: IC50_Mean;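 further: Wnt-LIGHT reporter cells stimulated with conditioned medium from Wnt3a-producing cells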
[8] = loss of viability in HepG2 cells – cell-based, CellTiter-Glo, cherry-picked, cytotoxicity control for Shn3 inhibitor project, dose response (AID 624134); type: functional
[9] = non-specific 3'UTR reporter inhibition in Clone20-Shn3RL – cell-based, Renilla luciferase, cherry-picked, counter-screen for Shn3 inhibitor project, dose response (AID 624133); type: functional

Luciferin 4-monooxygenase, sequence (P08659 whole entry): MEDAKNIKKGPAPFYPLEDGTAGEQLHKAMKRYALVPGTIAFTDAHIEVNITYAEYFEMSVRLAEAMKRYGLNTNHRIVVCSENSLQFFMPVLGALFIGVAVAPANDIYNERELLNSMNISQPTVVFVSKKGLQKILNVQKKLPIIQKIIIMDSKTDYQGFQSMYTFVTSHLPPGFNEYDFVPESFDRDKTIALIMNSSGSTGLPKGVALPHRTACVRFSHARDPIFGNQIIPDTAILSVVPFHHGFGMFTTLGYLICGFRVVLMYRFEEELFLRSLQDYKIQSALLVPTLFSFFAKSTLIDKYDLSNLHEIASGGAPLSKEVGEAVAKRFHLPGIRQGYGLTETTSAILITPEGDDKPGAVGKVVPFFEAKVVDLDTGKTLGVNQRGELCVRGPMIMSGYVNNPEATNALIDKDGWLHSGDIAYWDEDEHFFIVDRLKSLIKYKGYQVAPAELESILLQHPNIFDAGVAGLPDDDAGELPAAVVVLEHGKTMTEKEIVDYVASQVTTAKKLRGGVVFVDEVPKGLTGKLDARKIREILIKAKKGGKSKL
Protein Wnt-3a, sequence (P27467 whole entry): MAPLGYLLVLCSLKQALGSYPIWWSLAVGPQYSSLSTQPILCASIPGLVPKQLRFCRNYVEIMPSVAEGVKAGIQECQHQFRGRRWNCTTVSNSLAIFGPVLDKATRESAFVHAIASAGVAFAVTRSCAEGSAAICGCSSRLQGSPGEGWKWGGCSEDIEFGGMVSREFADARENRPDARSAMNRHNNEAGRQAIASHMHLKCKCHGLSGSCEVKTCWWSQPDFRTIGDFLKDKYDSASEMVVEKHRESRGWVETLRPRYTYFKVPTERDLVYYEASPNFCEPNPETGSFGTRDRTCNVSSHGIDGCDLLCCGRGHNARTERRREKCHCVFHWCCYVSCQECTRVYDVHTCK
Nonstructural protein 1, sequence (Q194T2 whole entry): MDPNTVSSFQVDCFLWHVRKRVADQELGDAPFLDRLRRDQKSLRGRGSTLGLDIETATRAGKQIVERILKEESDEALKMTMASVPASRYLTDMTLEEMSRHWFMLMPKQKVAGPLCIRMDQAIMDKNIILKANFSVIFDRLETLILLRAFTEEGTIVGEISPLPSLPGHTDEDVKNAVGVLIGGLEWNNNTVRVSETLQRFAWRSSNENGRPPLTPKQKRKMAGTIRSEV

CCN1/C(=C/c2ccc3cc(C)cc(C)c3[n+]2CC)Sc2cc(C)ccc21
IC50 (Nonstructural protein 1): 17.6 µM (active)
AC50 [1]: 2.86 µM (active)
AC50 [2]: 7.93 µM (active)

Cc1nnc(N/N=C/c2ccccc2O)n1N
AC50 [3]: 7.65 µM (active)
AC50 (Caspase-6): 13.3 µM (active)
IC50 [4]: > 128 µM (inactive)
EC50 (Protein RecA): 4.08 µM (active)

Cc1cccnc1CN1CCN(C(=O)c2cc(COc3ccc4ncccc4c3)on2)CC1
AC50 [5]: 2.1 µM (active)
EC50 [6]: > 112 µM (not active)
EC50 [7]: > 112 µM (not active)
AC50 (INS1): 3.77 µM (active)
IC50 (Protein Wnt-3a): 1.62 µM (active)
AC50 [8]: 7.57 µM (active)
AC50 [9]: 2.78 µM (active)
